According to ChEMBL document CHEMBL1136511, “Nonbenzamidine tetrazole derivatives as factor Xa inhibitors” (Bioorg Med Chem Lett, 2003):

Tests used:
Serine protease 1 = Serine protease 1 (Homo sapiens, UniProt P07477); assay: Inhibitory constant against trypsin using human purified enzymes
Prothrombin = Prothrombin (Homo sapiens, UniProt P00734); assay: Inhibitory constant against thrombin using human purified enzymes
Coagulation factor X = Coagulation factor X (Homo sapiens, UniProt P00742); assay: Inhibition of human purified factor Xa
Coagulation factor X, sequence (P00742 41-179 limits assumed): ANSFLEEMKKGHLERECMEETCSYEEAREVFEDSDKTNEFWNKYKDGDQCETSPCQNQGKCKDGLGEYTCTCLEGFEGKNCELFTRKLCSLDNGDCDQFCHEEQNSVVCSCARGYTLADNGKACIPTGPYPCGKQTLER
Coagulation factor X, sequence (P00742 235-488 limits assumed): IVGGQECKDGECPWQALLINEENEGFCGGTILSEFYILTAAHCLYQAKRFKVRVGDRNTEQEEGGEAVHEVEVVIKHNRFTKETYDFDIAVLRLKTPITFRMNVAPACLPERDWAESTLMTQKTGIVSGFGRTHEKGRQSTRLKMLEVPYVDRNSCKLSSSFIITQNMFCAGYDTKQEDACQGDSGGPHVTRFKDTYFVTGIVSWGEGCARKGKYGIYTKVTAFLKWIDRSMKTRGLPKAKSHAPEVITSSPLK

[1] = Half-life period after intravenous administration of 1.0 mg/kg in dog was determined; type: ADME, organism-based, Canis lupus familiaris; design: dose 1 mg/kg, route intravenous; conditions: in vivo
[2] = Clearance after intravenous administration of 1.0 mg/kg in dog was determined; type: ADME, organism-based, Canis lupus familiaris; design: dose 1 mg/kg, route intravenous; conditions: in vivo
Oryctolagus cuniculus = species: Oryctolagus cuniculus; assay: Antithrombotic efficacy in rabbit A-V shunt model was determined; type: functional
[3] = Clearance after peroral administration of 0.2 mg/kg in dog was determined; type: ADME, organism-based, Canis lupus familiaris; design: dose 0.2 mg/kg, route oral; conditions: in vivo, po
[4] = Half-life period after intravenous administration of 0.5 mg/kg in dog was determined; type: ADME, organism-based, Canis lupus familiaris; design: dose 0.5 mg/kg, route intravenous; conditions: in vivo
[5] = Clearance after intravenous administration of 0.5 mg/kg in dog was determined; type: ADME, organism-based, Canis lupus familiaris; design: dose 0.5 mg/kg, route intravenous; conditions: in vivo
[6] = Half-life period after peroral administration of 0.2 mg/kg in dog was determined; type: ADME, organism-based, Canis lupus familiaris; design: dose 0.2 mg/kg, route oral; conditions: in vivo, po

Serine protease 1, sequence (P07477 whole entry): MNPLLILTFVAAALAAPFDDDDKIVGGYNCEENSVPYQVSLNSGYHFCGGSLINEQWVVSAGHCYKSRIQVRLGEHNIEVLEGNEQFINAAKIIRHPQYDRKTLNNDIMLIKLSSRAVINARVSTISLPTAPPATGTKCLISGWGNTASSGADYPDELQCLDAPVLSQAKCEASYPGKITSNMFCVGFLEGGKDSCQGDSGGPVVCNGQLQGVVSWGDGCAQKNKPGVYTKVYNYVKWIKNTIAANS

Question: With COc1ccc(-n2nnnc2C(=O)Nc2ccc(-c3ccccc3S(N)(=O)=O)cc2)cc1N as the molecule, how does the Ki (Serine protease 1) read?
Answer: > 1600 nM

Question: And the Ki (Prothrombin)?
Answer: 4000 nM

Question: What does the source list for NCc1cccc(-n2nnnc2C(=O)Nc2ccc(-c3ccccc3S(N)(=O)=O)cc2)c1?
Answer: Ki (Serine protease 1): 69 nM; Ki (Prothrombin): > 21000 nM; Ki (Coagulation factor X): 13 nM

Question: What does the source list for Nc1cc(-n2nnnc2C(=O)Nc2ccc(C(=O)N3CCCC3)cc2F)ccc1Cl?
Answer: Ki (Serine protease 1): > 1600 nM; Ki (Prothrombin): 1200 nM; Ki (Coagulation factor X): 3 nM

Question: Which results are given for Nc1noc2ccc(-n3nnnc3C(=O)Nc3ccc(C(=O)N4CCCC4)cc3F)cc12?
Answer: Ki (Serine protease 1): > 1600 nM; Ki (Prothrombin): > 21000 nM; Ki (Coagulation factor X): 2.9 nM

Question: For Nc1cc(-n2nnnc2C(=O)Nc2ccc(-c3ccccc3S(N)(=O)=O)cc2)ccc1Cl, which Ki (Serine protease 1) is on record?
Answer: > 1600 nM

Question: And the Ki (Prothrombin)?
Answer: 1600 nM

Question: What about the Ki (Coagulation factor X) of the same molecule?
Answer: 5.4 nM

Question: What does the source list for Nc1cc(-n2nnnc2C(=O)Nc2ccc(-c3ccccc3S(N)(=O)=O)cn2)ccc1Cl?
Answer: Ki (Serine protease 1): > 1600 nM; Ki (Prothrombin): 7900 nM; Ki (Coagulation factor X): 8 nM

Question: With Nc1cc(-n2nnnc2C(=O)Nc2ccc(-c3ccccc3S(N)(=O)=O)cc2F)ccc1Cl as the molecule, how does the Ki (Coagulation factor X) read?
Answer: 1.2 nM

Question: For N=C(N)c1cccc(-n2nnnc2C(=O)Nc2ccc(-c3ccccc3S(N)(=O)=O)cc2)c1, which Ki (Serine protease 1) is on record?
Answer: 6.4 nM

Question: What about the half-life [1] of the same molecule?
Answer: 0.65 h

Question: What about the clearance [2] of the same molecule?
Answer: 10.3 mL/min/kg

Question: And the ID50 (Oryctolagus cuniculus)?
Answer: 0.13 µM/h/kg

Question: What does the source list for Nc1noc2ccc(-n3nnnc3C(=O)Nc3ccc(-c4ccccc4S(N)(=O)=O)cc3F)cc12?
Answer: CL/F [3]: 5 mL/min/kg; Ki (Serine protease 1): > 5200 nM; half-life [4]: 3.1 h; clearance [5]: 5 mL/min/kg; Ki (Prothrombin): 600 nM; half-life [6]: 3.1 h; ID50 (Oryctolagus cuniculus): 5.8 µM/h/kg; Ki (Coagulation factor X): 0.35 nM

Question: What does the source list for Nc1cc(-n2nnnc2C(=O)Nc2ccc(-c3ccccc3S(N)(=O)=O)cc2Cl)ccc1Cl?
Answer: Ki (Serine protease 1): > 1600 nM; Ki (Prothrombin): 1600 nM; Ki (Coagulation factor X): 3.3 nM

Question: For COc1ccc(-n2nnnc2C(=O)Nc2ccc(-c3ccccc3S(N)(=O)=O)cc2)cc1, which Ki (Serine protease 1) is on record?
Answer: > 1600 nM

Question: And the Ki (Prothrombin)?
Answer: 10000 nM

Question: What about the Ki (Coagulation factor X) of the same molecule?
Answer: 8 nM

Question: With CS(=O)(=O)c1ccccc1-c1ccc(NC(=O)c2nnnn2-c2ccc3onc(N)c3c2)c(F)c1 as the molecule, how does the Ki (Serine protease 1) read?
Answer: > 1600 nM

Question: And the Ki (Prothrombin)?
Answer: 400 nM

Question: And the Ki (Coagulation factor X)?
Answer: 0.39 nM

Question: What does the source list for Nc1noc2ccc(-n3nnnc3C(=O)Nc3ccc(-c4ccccc4S(N)(=O)=O)cc3)cc12?
Answer: Ki (Serine protease 1): > 1600 nM; Ki (Prothrombin): 1500 nM; Ki (Coagulation factor X): 0.98 nM
